How the values were obtained:
Trpv2 = target: T1, Trpv2 (Rattus norvegicus, UniProt Q9WUD2); experiment: Single cell patch clamp of DA FLS; type: cell-based; design: endogenous in cells; host or cells: FLS from DA rats with pristane-induced arthritis; settings: perfusion with 30 μM
T1 sequence (Q9WUD2 1-761): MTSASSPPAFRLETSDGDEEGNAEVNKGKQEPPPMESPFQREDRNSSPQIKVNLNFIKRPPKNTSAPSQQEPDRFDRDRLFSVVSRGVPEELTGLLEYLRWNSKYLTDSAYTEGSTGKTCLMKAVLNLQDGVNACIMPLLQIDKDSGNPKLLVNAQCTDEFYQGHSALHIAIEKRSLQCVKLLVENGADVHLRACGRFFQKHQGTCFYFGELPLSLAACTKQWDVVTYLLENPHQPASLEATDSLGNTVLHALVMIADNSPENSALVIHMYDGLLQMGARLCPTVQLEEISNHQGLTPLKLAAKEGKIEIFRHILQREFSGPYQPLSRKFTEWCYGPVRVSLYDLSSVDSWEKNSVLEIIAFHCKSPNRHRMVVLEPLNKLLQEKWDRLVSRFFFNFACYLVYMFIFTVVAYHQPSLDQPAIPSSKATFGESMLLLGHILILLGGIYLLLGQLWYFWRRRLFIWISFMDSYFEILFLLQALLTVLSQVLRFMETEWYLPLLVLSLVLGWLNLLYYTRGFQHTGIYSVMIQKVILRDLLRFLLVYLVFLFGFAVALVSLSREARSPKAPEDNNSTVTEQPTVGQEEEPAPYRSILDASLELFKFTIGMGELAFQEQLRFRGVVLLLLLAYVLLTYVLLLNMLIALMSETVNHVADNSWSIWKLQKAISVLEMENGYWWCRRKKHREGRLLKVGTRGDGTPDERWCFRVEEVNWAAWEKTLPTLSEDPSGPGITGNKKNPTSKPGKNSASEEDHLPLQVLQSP
Protocol: FLS obtained from DA rats with PIA were plated in culture medium onto glass coverslips and allowed to adhere at 37° C. Recordings were performed in the whole-cell configuration of the patch-clamp technique at room temperature using an EPC10-USB amplifier (HEKA instruments, Bellmore, N.Y.). […] The bath solution contained 132 mM NaCl, 5.4 mM KCl, 1.8 mM CaCl2, 0.8 mM MgCl2, 10 mM HEPES, and 10 mM glucose, at pH 7.4. O1821-activated currents were elicited with a 600 ms ramp from −100 to +100 mV from a holding potential of −107 mV. Addition of O1821 was accomplished by complete bath exchange.

[1] = test system: C57BL/6 mice with KRN serum transfer-induced arthritis; experiment: KRN serum transfer induced arthritis (clinical scores and histology); type: in vivo, mouse
Protocol: Seven to eight week-old C57BL/6 male mice (Jackson Laboratories) received 200 μl of KRN arthritogenic serum (Ji et al, “Genetic Influences on the End-Stage Effector Phase of Arthritis,” J. Exp. Med. 194 (3):321-330 (2001), which is hereby incorporated by reference in its entirety) (KBN TCR transgenic mice were a kind gift from Christophe Benoist and have been intercrossed with NOD at the Feinstein Institute to generate KRN mice and the arthritogenic serum) intraperitoneal (IP) on day zero (D0) and day 2 (D2). After the onset of clear ankle arthritis (day 3; D3), mice were started on O1821 10 mg/Kg IP BID or control vehicle (DMSO in saline solution). Arthritis severity was scored according to the system reported by Jirholt et al., “Genetic Linkage Analysis of Collagen-Induced Arthritis in the Mouse,” Eur. J. Immunol. 28 (10):3321-3328 (1998), which is hereby incorporated by reference in its entirety, which includes a number of involved joints and a degree of inflammation (swelling/redness) in a scale of 0-12 per mouse per day.
[…] Histology slides were scored without knowledge of treatment and according to a comprehensive scoring system previously reported that includes parameters for synovial hyperplasia, inflammatory cell infiltration, and bone and cartilage erosions (Brenner et al., “The Non-MHC Quantitative Trait Locus Cia10 Contains a Major Arthritis Gene and Regulates Disease Severity, Pannus Formation and Joint Damage,” Arthritis Rheum. 52 (1):322-332 (2005), which is hereby incorporated by reference in its entirety).

FLS from RA patients = experiment: Matrigel transwell invasion assay, RA FLS; type: cell-based, human
From the text: Human synovial tissues were obtained from RA patients undergoing elective orthopedic surgery. All patients met the American College of Rheumatology criteria for RA (Arnett et al, “The American Rheumatism Association 1987 Revised Criteria for the Classification of Rheumatoid Arthritis,” Arthritis Rheum. 31 (3):315-324 (1988), which is hereby incorporated by reference in its entirety). Informed consent was obtained from all participating subjects under an Institutional Review Board-approved protocol through the Feinstein Institute's Tissue Donation Program.
The in vitro invasiveness of FLS was assayed in a transwell system using Matrigel-coated inserts (BD Biosciences, Franklin Lakes, N.J.), as previously described (Tolboom et al., “Invasiveness of Fibroblast-Like Synoviocytes is an Individual Patient Characteristic Associated with the Rate of Joint Destruction in Patients with Rheumatoid Arthritis,” Arthritis Rheum. 52 (7):1999-2002 (2005); Laragione et al., “The Arthritis Severity Locus Cia5d is a Novel Genetic Regulator of the Invasive Properties of Synovial Fibroblasts,” Arthritis Rheum. 58 (8):2296-2306 (2008), which are hereby incorporated by reference in their entirety). […] The opposite side of the insert was stained with Crystal Violet (Sigma) and the total number of cells that invaded through Matrigel counted at 100× magnification. […]

phosphorylated Akt = experiment: FLS levels of phosphorylated Akt; type: cell-based

C=C(C)[C@@H]1CCC(C)=C[C@H]1c1c(O)cc(C)cc1O [Compound O1821]
Trpv2 channel current (Trpv2): induced channel opening
Arthritis severity scores ([1]; 10 mg/Kg BID IP from day 3 to day 9): reductions in arthritis severity scores
Arthritis severity index (ASI), mean±S.D. ([1]; 10 mg/Kg IP BID from day 3): 38.8±6.3
Lower arthritis severity index (ASI) vs vehicle ([1]; 10 mg/Kg IP BID from day 3): 30%
Histologic parameters (angiogenesis, inflammatory infiltration, pannus formation, loss of proteoglycan) ([1]; ankles at D10, blinded scoring): reduced several histologic parameters
Angiogenesis ([1]; histology, vs control vehicle): marked reduction
Synovial pannus formation ([1]; histology, vs control vehicle): reduced
Synovial tissue inflammatory infiltration ([1]; histology, vs control vehicle): reduced
Reduction of RA FLS invasion (FLS from RA patients; 20 μM): 90%
Reduction of RA FLS invasion (FLS from RA patients; 50 μM): 99.4%
Levels of phosphorylated Akt (phosphorylated Akt): did not affect
